# Measured values taken from US20210196838A1, “COMPOUNDS AND COMPOSITIONS FOR POTENTIATION OF TLR AGONISTS” (priority 2018, published 2021).
# What was measured:
# [1] = test system: vesicular stomatitis virus-green fluorescent protein (VSV-GFP); format: cell-based
# [2] = test system: rainbow trout gut cells (RT-gut); experiment: Uptake of fluorescently labelled poly IC in RT-gut cells; format: cell-based; settings: 1 ug/ml, 20 degree treatment, 4 hours
# viral infection = settings: free agonist dosing provided by Zhao et. al, 2012; cited from earlier work
substance,measurement,setting,value
polyinosinic:polycytidylic acid [poly IC],equivalent dose in an antiviral assay,[1],1000 µg/mL
same,intracellular fluorescence,[2],no fluorescence was detected
same,dose sufficient to protect mice from viral infection,viral infection,20 µg
